“And” between values parts separate entries of the source, which are not always exact repeats. Equal entries are not always repeated.
Tests used:
[1] = species: Mus musculus; test: Evaluated for the percent inhibition uptake of radiolabeled thymidine as a measure of inhibition of cell division against the SV40-transformed 3T3 cells after 4 hr at the concentration of 1x10E4M; format: functional, NIH3T3
[2] = species: Mus musculus; test: Evaluated for the percent inhibition uptake of radiolabeled thymidine as a measure of inhibition of cell division against the SV40-transformed 3T3 cells after 4 hr at the concentration of 3x10E4M; format: functional, NIH3T3
[3] = species: Mus musculus; test: Evaluated for the percent inhibition uptake of radiolabeled thymidine as a measure of inhibition of cell division against the SV40-transformed 3T3 cells after 4 hr at the concentration of 6; format: functional, NIH3T3
[4] = Compound in absence of MPM cell homogenate at pH 3 to isolate compound 4 (ng); format: ADME, cell-based
[5] = Compound in absence of MPM cell homogenate at pH 4.5 to isolate compound 4 (ng); format: ADME, cell-based
[6] = Compound in absence of MPM cell homogenate at pH 7 to isolate compound 4 (ng); format: ADME, cell-based
[7] = Compound treated in absence of MPM cell homogenate at pH 4.5 to isolate compound 4 (ng); format: ADME, cell-based
[8] = Compound treated with MPM cell homogenate at pH 3 to isolate compound 4 (ng); format: ADME, cell-based
[9] = Compound treated with MPM cell homogenate at pH 4 to isolate compound 4 (ng); format: ADME, cell-based
[10] = Compound treated with MPM cell homogenate at pH 4.5 to isolate compound 4 (ng); format: ADME, cell-based
[11] = Compound treated with MPM cell homogenate at pH 5 to isolate compound 4 (ng); format: ADME, cell-based
[12] = Compound treated with MPM cell homogenate at pH 5.5 to isolate compound 4 (ng); format: ADME, cell-based
[13] = Compound treated with MPM cell homogenate at pH 6 to isolate compound 4 (ng); format: ADME, cell-based
[14] = Compound treated with MPM cell homogenate at pH 6.5 to isolate compound 4 (ng); format: ADME, cell-based
[15] = Compound treated with MPM cell homogenate at pH 7 to isolate compound 4 (ng); format: ADME, cell-based
[16] = Compound treated with MPM cell homogenate at pH 7.5 to isolate compound 4 (ng); format: ADME, cell-based
[17] = Compound treated with MPM cell homogenate at pH 8 to isolate compound 4 (ng); format: ADME, cell-based
[18] = species: Mus musculus; test: Appearance of mouse peritoneal macrophages after 3h of treatment with compound at a concentration of 0.375 mM; vacuoles, rounded; format: functional, organism-based
[19] = species: Mus musculus; test: Toxicity toward P-815 Mastocytoma cells after 5 hr was determined as percent of [51Cr]- release from labeled cells as a measure of cell death. at a concentration of 0.331 mM. (expt III); format: functional
[20] = species: Mus musculus; test: Cytotoxicity was determined against mouse peritoneal macrophages (MPM) and the percent of LDH released after 24 hr was determined as a measure of cell death at a concentration of 0.375 mM (expt I); format: functional
[21] = species: Mus musculus; test: Cytotoxicity was determined against mouse peritoneal macrophages (MPM) and the percent of LDH released after 24 hr was determined as a measure of cell death at a concentration of 0.375 mM (expt II); format: functional
[22] = species: Mus musculus; test: Cytotoxicity was determined for the compound against mouse peritoneal macrophages (MPM) at a concentration of 0.165 mM.; format: functional
[23] = species: Mus musculus; test: Toxicity was evaluated for the compound at a concentration of 0.331 mM against […] Mastocytoma.; format: functional
[24] = tested on: MPM; test: Compound (steam-treated 10 min) in presence of MPM cells at pH 3 to isolate compound 4 (ng); No data; format: cell-based
[25] = tested on: MPM; test: Compound along with 10 uM HgCl2 in presence of MPM cells at pH 3 to isolate compound 4 (ng); format: cell-based
[26] = tested on: MPM; test: Compound along with 3 mM leupeptin in presence of MPM cells at pH 3 to isolate compound 4 (ng); format: cell-based
[27] = tested on: MPM; test: Compound along with 4 mM pepstatin in presence of MPM cells at pH 3 to isolate compound 4 (ng); format: cell-based
[28] = tested on: MPM; test: Compound in absence of MPM cells and in absence of inactivator at pH 8 to isolate compound 4 (ng); format: cell-based
[29] = tested on: MPM; test: Compound in presence of MPM cells and in absence of inactivator at pH 3 to isolate compound 4 (ng); format: cell-based
[30] = tested on: MPM; test: Compound in presence of MPM cells and in absence of inactivator at pH 8 to isolate compound 4 (ng); format: cell-based
[31] = Compound treated with MPM cell homogenate at pH 3.5 to isolate compound 4 (ng); format: ADME, cell-based

Question: For `NCC(=O)N[C@H](Cc1ccccc1)C(=O)N(CCCl)CCCl`, which Inhibition uptake [1] is on record?
Answer: 5%

Question: What about the Inhibition uptake [2] of the same compound?
Answer: 16%

Question: What about the Inhibition uptake [3] of the same compound?
Answer: 60%

Question: Which results are given for `CCCCCCCCCCCCN(CC(F)(F)F)C(=O)[C@@H](Cc1ccccc1)NC(=O)CNC(=O)OCc1ccccc1`?
Answer: Activity [4]: 30; Activity [5]: 36; Activity [6]: 20; Activity [7]: < 14; Activity [8]: 92; Activity [9]: 49; Activity [10]: 92 and 36; Activity [11]: 30; Activity [12]: 22; Activity [13]: 54; Activity [14]: 28; Activity [15]: 34; Activity [16]: 52; Activity [17]: 104; Activity [18]: vacuoles, rounded; Cr release [19]: 22%; LDH release [20]: 73%; LDH release [21]: 61%; Toxicity [22]: 100 µg/mL; Toxicity [23]: 200 µg/mL; Activity [24]: 0; Activity [25]: 28; Activity [26]: 23; Activity [27]: 27; Activity [28]: 13; Activity [29]: 53; Activity [30]: 24; Activity [31]: 79
